# In patent US11180504B2 (ORCHID PHARMA LTD., priority 2016, dated 2021):
# Columns and labels:
# [1] = tested on: carbapenem sensitive Escherichia coli; assay: MIC by broth micro-dilution (CLSI), carbapenem sensitive E. coli; type: cell-based; conditions: Escherichia coli, ATCC25922, ESBL −ve E. coli ATCC25922; read-out: MIC
# [2] = tested on: carbapenemase producing K. pneumoniae; assay: MIC by broth micro-dilution (CLSI), carbapenemase producing K. pneumoniae; type: cell-based, Klebsiella pneumoniae; conditions: Klebsiella pneumoniae, ATCCBAA1705, KPC-2 K. pneumoniae ATCC BAA-1705; read-out: MIC
# [3] = tested on: methicillin-sensitive Staphylococcus aureus; assay: MIC by broth micro-dilution (CLSI), methicillin-sensitive S. aureus; type: cell-based; conditions: Staphylococcus aureus, ATCC 29213 / MSSA, MSSA S. aureus ATCC29213; read-out: MIC
# [4] = tested on: carbapenem sensitive Pseudomonas aeruginosa; assay: MIC by broth micro-dilution (CLSI), carbapenem sensitive P. aeruginosa; type: cell-based; conditions: Pseudomonas aeruginosa, ATCC27853, Meropenem susceptible P. aeruginosa ATCC27853; read-out: MIC
MIC [1],MIC [2],MIC [3],MIC [4],Structure (SMILES)
1 µg/mL,4 µg/mL,8 µg/mL,> 128 µg/mL,"C[C@@H](NC(=O)Cc1nnnn1C)[C@H]1C(=O)N2C(C(=O)O)=C(S[C@@H]3CN[C@H](C(=O)N(C)C)C3)[C@H](C)[C@H]12 [Example 304, (4R,5S,6R)-3-((3S,5S)-5-(dimethylcarbamoyl)pyrrolidin-3-ylthio)-4-methyl-6-((R) - 1-(2-(1-methyl-1H-tetrazol-5-yl)acetamido)ethyl)-7-oxo-1-azabicyclo[3.2.0]hept-2-ene-2-carboxylic acid]"
0.25 µg/mL,1 µg/mL,2 µg/mL,8 µg/mL,"C[C@@H](NC(=O)Cn1cnnn1)[C@H]1C(=O)N2C(C(=O)O)=C(S[C@@H]3CN[C@H](CNS(N)(=O)=O)C3)[C@H](C)[C@H]12 [Example 305, (4R,5S,6R)-6-((R) - 1-(2-(1H-tetrazol-1-yl)acetamido)ethyl)-4-methyl-7-oxo-3-((3S,5S)-5-((sulfamoylamino)methyl)pyrrolidin-3-ylthio)-1-azabicyclo[3.2.0]hept-2-ene-2-carboxylic acid]"
0.25 µg/mL,1 µg/mL,2 µg/mL,4 µg/mL,"C[C@@H](NC(=O)Cn1cnnn1)[C@H]1C(=O)N2C(C(=O)[O-])=C(SC3Cn4cnc[n+]4C3)[C@H](C)[C@H]12 (stereo partly drawn) [Example 306, (4R,5S,6R)-6-((R) - 1-(2-(1H-tetrazol-1-yl)acetamido)ethyl)-3-(6,7-dihydro-5H-pyrazolo[1,2-a][1,2,4]triazol-4-ium-6-ylthio)-4-methyl-7-oxo-1-azabicyclo[3.2.0]hept-2-ene-2-carboxylate]"
1 µg/mL,4 µg/mL,16 µg/mL,32 µg/mL,"CNCc1cn(CC(=O)N[C@H](C)[C@H]2C(=O)N3C(C(=O)O)=C(S[C@@H]4CN[C@H](C(=O)N(C)C)C4)[C@H](C)[C@H]23)nn1 [Example 309, (4R,5S,6R)-3-((3S,5S)-5-(dimethylcarbamoyl)pyrrolidin-3-ylthio)-4-methyl-6-((R) - 1-(2-(4-((methylamino)methyl)-1H-1,2,3-triazol-1-yl)acetamido)ethyl)-7-oxo-1-azabicyclo[3.2.0]hept-2-ene-2-carboxylic acid]"
1 µg/mL,4 µg/mL,32 µg/mL,64 µg/mL,"CNCC(=O)N[C@H](C)[C@H]1C(=O)N2C(C(=O)O)=C(S[C@@H]3CN[C@H](C(=O)N4CC[C@H](n5ncnn5)C4)C3)[C@H](C)[C@H]12 [Example 310, (4R,5S,6R)-3-((3S,5S)-5-((S)-3-(2H-tetrazol-2-yl)pyrrolidine-1-carbonyl)pyrrolidin-3-ylthio)-4-methyl-6-((R) - 1-(2-(methylamino)acetamido)ethyl)-7-oxo-1-azabicyclo[3.2.0]hept-2-ene-2-carboxylic acid]"
8 µg/mL,32 µg/mL,32 µg/mL,> 128 µg/mL,"C[C@@H](NC(=O)[C@@H](N)Cn1cccn1)[C@H]1C(=O)N2C(C(=O)O)=C(S[C@@H]3CN[C@H](C(=O)N(C)C)C3)[C@H](C)[C@H]12 [Example 311, (4R,5S,6R)-6-((R) - 1-((S)-2-amino-3-(1H-pyrazol-1-yl)propanamido)ethyl)-3-((3S,5S)-5-(dimethylcarbamoyl)pyrrolidin-3-ylthio)-4-methyl-7-oxo-1-azabicyclo[3.2.0]hept-2-ene-2-carboxylic acid]"
1 µg/mL,16 µg/mL,4 µg/mL,> 128 µg/mL,"C[C@H]([C@H]1C(=O)N2C(C(=O)O)=C(S[C@@H]3CN[C@H](C(=O)N(C)C)C3)[C@H](C)[C@H]12)n1ncnn1 [Example 313, (4R,5S,6S)-6-((R) - 1-(2H-tetrazol-2-yl)ethyl)-3-((3S,5S)-5-(dimethylcarbamoyl)pyrrolidin-3-ylthio)-4-methyl-7-oxo-1-azabicyclo[3.2.0]hept-2-ene-2-carboxylic acid]"
0.25 µg/mL,2 µg/mL,4 µg/mL,4 µg/mL,"C[C@@H](NC(=O)Cn1cncn1)[C@H]1C(=O)N2C(C(=O)O)=C(S[C@@H]3CN[C@H](C(=O)N4CCNCC4)C3)[C@H](C)[C@H]12 [Example 314, (4R,5S,6R)-6-((R) - 1-(2-(1H-tetrazol-1-yl)acetamido)ethyl)-4-methyl-7-oxo-3-((3S,5S)-5-(piperazine-1-carbonyl)pyrrolidin-3-ylthio) - 1-azabicyclo[3.2.0]hept-2-ene-2-]"
0.125 µg/mL,2 µg/mL,4 µg/mL,64 µg/mL,"C[C@@H](NC(=O)Cn1nnc(N)n1)[C@H]1C(=O)N2C(C(=O)O)=C(S[C@@H]3CN[C@H](C(=O)N(C)C)C3)[C@H](C)[C@H]12 [Example 315, (4R,5S,6R)-6-((R) - 1-(2-(5-amino-2H-tetrazol-2-yl)acetamido)ethyl)-3-((3S,5S)-5-(dimethylcarbamoyl)pyrrolidin-3-ylthio)-4-methyl-7-oxo-1-azabicyclo[3.2.0]hept-2-ene-2-carboxylic acid]"
0.25 µg/mL,16 µg/mL,4 µg/mL,16 µg/mL,"C[C@@H](NC(=O)Cn1nnc(N)n1)[C@H]1C(=O)N2C(C(=O)O)=C(S[C@@H]3CN[C@H](C(=O)N4CC[C@@H](N)C4)C3)[C@H](C)[C@H]12 [Example 316, (4R,5S,6R)-6-((R) - 1-(2-(5-amino-2H-tetrazol-2-yl)acetamido)ethyl)-3-((3S,5S)-5-((R)-3-aminopyrrolidine-1-carbonyl)pyrrolidin-3-ylthio)-4-methyl-7-oxo-1-azabicyclo[3.2.0]hept-2-ene-2-carboxylic acid]"
0.5 µg/mL,8 µg/mL,2 µg/mL,128 µg/mL,"C[C@@H](NC(=O)Cn1nc(C(F)(F)F)nc1N)[C@H]1C(=O)N2C(C(=O)O)=C(S[C@@H]3CN[C@H](C(=O)N4CC[C@@H](N)C4)C3)[C@H](C)[C@H]12 [Example 317, (4R,5S,6R)-6-((R) - 1-(2-(5-amino-3-(trifluoromethyl) - 1H-1,2,4-triazol-1-yl)acetamido)ethyl)-3-((3S,5S)-5-((R)-3-aminopyrrolidine-1-carbonyl)pyrolidin-3-ylthio)-4-methyl-7-oxo-1-azabicyclo[3.2.0]hept-2-ene-2-carboxylic acid]"
2 µg/mL,128 µg/mL,16 µg/mL,> 128 µg/mL,"C[C@@H](NC(=O)C(C)(C)n1cnnn1)[C@H]1C(=O)N2C(C(=O)O)=C(S[C@@H]3CN[C@H](C(=O)N(C)C)C3)[C@H](C)[C@H]12 [Example 318, (4R,5S,6R)-3-((3S,5S)-5-(dimethylcarbamoyl)pyrrolidin-3-ylthio)-4-methyl-6-((R) - 1-(2-methyl-2-(1H-tetrazol-1-yl)propanaraido)ethyl)-7-oxo-1-azabicyclop[3.2.0]hept-2-ene-2-carboxylic acid]"
0.25 µg/mL,1 µg/mL,2 µg/mL,32 µg/mL,"C[C@H]([C@H]1C(=O)N2C(C(=O)O)=C(S[C@@H]3CN[C@H](C(=O)N(C)C)C3)[C@H](C)[C@H]12)n1cnnn1 [Example 319, (4R,5S,6S)-6-((R)-1-(1H-tetrazol-1-yl)ethyl)-3-((3S,5S)-5-(dimethylcarbamoyl)pyrrolidin-3-ylthio)-4-methyl-7-oxo-1-azabicyclo[3.2.0]hept-2-ene-2-carboxylic acid]"
1 µg/mL,4 µg/mL,2 µg/mL,128 µg/mL,"C[C@@H](NC(=O)Cn1nc(C(F)(F)F)nc1N)[C@H]1C(=O)N2C(C(=O)O)=C(S[C@@H]3CN[C@H](C(=O)N(C)C)C3)[C@H](C)[C@H]12 [Example 320, (4R,5S,6R)-6-((R) - 1-(2-(5-amino-3-(trifluoromethyl) - 1H-1,2,4-triazol-1-yl)acetamido)ethyl)-3-((3S,5S)-5-(dimethylcarbamoyl)pyrrolidin-3-ylthio)-4-methyl-7-oxo-1-azabiayclo[3.2.0]hept-2-ene-2-carboxylic acid]"
1 µg/mL,8 µg/mL,2 µg/mL,> 128 µg/mL,"C[C@@H](NC(=O)CSc1nnnn1C)[C@H]1C(=O)N2C(C(=O)O)=C(S[C@@H]3CN[C@H](C(=O)N(C)C)C3)[C@H](C)[C@H]12 [Example 321, (4R,5S,6R)-3-((3S,5S)-5-(dimethylcirbamoyl)pyrrolidin-3-ylthio)-4-methyl-6-((R) - 1-(2-(1-methyl-1H-tetrazol-5-ylthio)acetamido)ethyl)-7-oxo-1-azabicyclo[3.2.0]hept-2-ene-2-carboxylic acid]"
2 µg/mL,16 µg/mL,16 µg/mL,> 128 µg/mL,"C[C@@H](NC(=O)[C@@H](N)Cn1cnnn1)[C@H]1C(=O)N2C(C(=O)O)=C(S[C@@H]3CN[C@H](C(=O)N(C)C)C3)[C@H](C)[C@H]12 [Example 322, (4R,5S,6R)-6-((R) - 1-((S)-2-amino-3-(1H-tetrazol-1-yl)propanamido)ethyl)-3-((3S,5S)-5-(dimethylcarbamoyl)pyrrolidin-3-ylthio)-4-methyl-7-oxo-1-azabicyclo[3.2.0]hept-2-ene-2-carboxylic acid]"
2 µg/mL,8 µg/mL,16 µg/mL,> 128 µg/mL,"C[C@@H](NC(=O)[C@@H](N)Cn1ncnn1)[C@H]1C(=O)N2C(C(=O)O)=C(S[C@@H]3CN[C@H](C(=O)N(C)C)C3)[C@H](C)[C@H]12 [Example 323, (4R,5S,6R)-6-((R) - 1-((S)-2-amino-3-(2H-tetrazol-2-yl)propanamido)ethyl)-3-((3S,5S)-5-(dimethylcarbamoyl)pyrrolidin-3-ylthio)-4-methyl-7-oxo-1-azabicyclo[3.2.0]hept-2-ene-2-carboxylic acid]"
